These results are taken from US9604936B2, “Besylate salt of a BTK inhibitor” (Celgene Avilomics Research, Inc., priority 2010, dated 2017).

Data set [1] has as its system B-cell proliferation. To be noted: in vivo; cited from earlier work.
A further data set addresses BTK (Homo sapiens, UniProt Q06187). The conditions noted are these: enzymatic and cellular assays; cited from earlier work.
In data set [2] the test system is B-cell proliferation. The conditions noted are these: in vitro; cited from earlier work.
The nature of data set [3]: Solubility of Compound 2 by manual dilution combined with visual observation. It is filed as physicochemical. The conditions noted are these: thermodynamic from solid. As for the experimental part:
Solubility of Compound 2, at room temperature, was measured in seventeen solvents and two solvent mixtures by manual dilution combined with visual observation.

Read-outs that look alike come from different tables or passages of the source.

Sequence of BTK (Q06187 whole entry, species assumed): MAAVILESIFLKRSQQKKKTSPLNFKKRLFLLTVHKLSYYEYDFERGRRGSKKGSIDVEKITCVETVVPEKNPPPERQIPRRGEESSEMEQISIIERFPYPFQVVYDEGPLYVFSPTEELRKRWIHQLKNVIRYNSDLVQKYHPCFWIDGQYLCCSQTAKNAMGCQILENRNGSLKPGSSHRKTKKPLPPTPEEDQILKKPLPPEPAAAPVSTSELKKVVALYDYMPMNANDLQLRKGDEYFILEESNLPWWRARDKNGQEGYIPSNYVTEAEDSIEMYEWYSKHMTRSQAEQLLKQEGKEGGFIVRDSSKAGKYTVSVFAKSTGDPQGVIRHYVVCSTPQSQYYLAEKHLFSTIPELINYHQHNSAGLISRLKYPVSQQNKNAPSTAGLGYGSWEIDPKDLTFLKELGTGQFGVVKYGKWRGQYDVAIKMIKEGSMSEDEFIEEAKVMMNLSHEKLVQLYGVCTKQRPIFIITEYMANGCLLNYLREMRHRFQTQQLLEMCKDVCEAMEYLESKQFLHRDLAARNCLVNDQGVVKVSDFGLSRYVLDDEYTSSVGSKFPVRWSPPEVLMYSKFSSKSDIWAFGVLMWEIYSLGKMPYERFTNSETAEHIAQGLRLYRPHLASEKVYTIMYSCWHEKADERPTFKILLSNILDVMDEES

As for `C=CC(=O)Nc1cccc(Nc2nc(Nc3ccc(OCCOC)cc3)ncc2F)c1` [Compound 1, N-(3-(5-fluoro-2-(4-(2-methoxyethoxy)phenylamino)pyrimidin-4-ylamino)phenyl)acrylamide], the “inhibition of B-cell proliferation” value in the data set on B-cell proliferation [1] and with B-cell proliferation [2] was “inhibit B-cell proliferation” each time. For the same compound, the “inhibition of BTK” value on BTK is reported as “covalent, irreversible inhibition of BTK”.
In the case of `C=CC(=O)Nc1cccc(Nc2nc(Nc3ccc(OCCOC)cc3)ncc2F)c1.O=S(=O)(O)c1ccccc1` [Compound 2], the solubility in data set [3] (aqueous with cosolvent or surfactant or cyclodextrin, 1:1 DMF:H2O, room temperature) is 71000 to 106000 µg/mL; in data set [3] (aqueous with cosolvent or surfactant or cyclodextrin, 3:7 DMF:H2O, room temperature), 16000 to 18000 µg/mL; in data set [3] (organic solvent or mixture, 1,4-dioxane, room temperature), less than 1000 µg/mL; in data set [3] (organic solvent or mixture, Acetone, room temperature), approximately 2500 µg/mL; in data set [3] (organic solvent or mixture, Anisole, room temperature), less than 1000 µg/mL; in data set [3] (organic solvent or mixture, Benzyl alcohol, room temperature), 97000 to 194000 µg/mL. Further, the solubility was less than 1000 µg/mL in data set [3] (organic solvent or mixture, CH2Cl2, room temperature); approximately 2000 µg/mL in data set [3] (organic solvent or mixture, CH3CN, room temperature); more than 184000 µg/mL in data set [3] (organic solvent or mixture, DMF, room temperature); approximately 2000 µg/mL in data set [3] (organic solvent or mixture, Ethanol, room temperature); less than 1000 µg/mL in data set [3] (organic solvent or mixture, Ethyl Acetate, room temperature); less than 1000 µg/mL in data set [3] (organic solvent or mixture, Isopropanol, room temperature). For the same compound, the solubility is 26000 to 29000 µg/mL in data set [3] (organic solvent or mixture, Methanol, room temperature); more than 234000 µg/mL in data set [3] (organic solvent or mixture, Pyridine, room temperature); less than 1000 µg/mL in data set [3] (organic solvent or mixture, TBME, room temperature); approximately 2000 µg/mL in data set [3] (organic solvent or mixture, THF, room temperature); less than 1000 µg/mL in data set [3] (organic solvent or mixture, Toluene, room temperature); less than 1000 µg/mL in data set [3] (Water, room temperature).
